According to patent US12133856B2, “Multi-substituent psilocybin derivatives and methods of using” (Enveric Biosciences Canada Inc., priority 2021, dated 2024):
Read-outs that look alike come from different tables or passages of the source.

Key:
5-HT2A [1] = biological target: T1, 5-HT2A (Homo sapiens, UniProt P28223); assay: Radioligand competition binding assay with [3H]ketanserin (scintillation proximity assay) on membranes containing 5-HT2A; parameters: purchased PerkinElmer ES-313-M400UA; details: for competition binding curve result at 5-HT2A receptor (binding / no binding): controls, FIG. 15C
Procedure: Ki values were calculated from the competition displacement data using the competitive binding analysis from GraphPad PRISM software.

5-HT1A receptor = biological target: T2, 5-HT1A receptor (Homo sapiens, UniProt P08908); assay: cAMP-Glo assay of 5-HT1A receptor modulation with 4 μM forskolin in CHO-K1/5-HT1A/Gα15 (+5-HT1A) versus CHO-K1/Gα15 (−5-HT1A) cells; assay type: cell-based; details: fixed 4 μM forskolin; cAMP relative (%) to ligand-free samples; decrease = 5-HT1A activity, no difference = no modulation
T2 construct: host or cells: CHO-K1 (co-expressing Gα15)
T2 sequence (P08908 1-422): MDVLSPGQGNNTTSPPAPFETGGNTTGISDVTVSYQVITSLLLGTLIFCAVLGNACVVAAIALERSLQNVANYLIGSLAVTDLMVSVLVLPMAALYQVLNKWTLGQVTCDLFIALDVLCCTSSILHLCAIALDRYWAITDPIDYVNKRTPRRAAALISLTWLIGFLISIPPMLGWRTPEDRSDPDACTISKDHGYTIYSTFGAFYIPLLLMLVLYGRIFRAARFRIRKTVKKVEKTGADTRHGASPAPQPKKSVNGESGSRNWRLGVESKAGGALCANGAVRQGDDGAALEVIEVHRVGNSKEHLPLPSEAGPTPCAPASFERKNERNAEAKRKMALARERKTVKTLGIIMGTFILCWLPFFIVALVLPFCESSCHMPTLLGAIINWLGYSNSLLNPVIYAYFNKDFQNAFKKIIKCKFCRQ
Source text: CHO-K1/Gα15 (GenScript, M00257) (−5-HT1A) and CHO-K1/5-HT1A/Gα15 (GenScript, M00330) (+5-HT1A) cells lines were used. Briefly, CHO-K1/Gα15 is a control cell line that constitutively expresses Gα15 which is a promiscuous Gq protein. This control cell line lacks any transgene encoding 5-HT1A receptors, but still responds to forskolin; thus, cAMP response to forskolin should be the same regardless of whether or not 5-HT1A agonists are present. Conversely, CHO-K1/5-HT1A/Gα15 cells stably express 5-HT1A receptor in the CHO-K1 host background. […] In +5-HT1A cells, Gα15 may be recruited in place of Gαi/o, which could theoretically dampen cAMP response (Rojas and Fiedler 2016, Front Cell Neurosci 10: 272). […] In contrast, tryptophan is not known to activate, or modulate in any way, 5-HT1A receptors, and was thus used as a negative control. Cells were maintained in complete growth media as recommended by supplier (GenScript) which is constituted as follows: Ham's F12 Nutrient mix (HAM's F12, GIBCO #11765-047) with 10% fetal bovine serum (FBS) (Thermo Scientific #12483020), 200 μg/ml zeocin (Thermo Scientific #R25005) and/or 100 μg/ml hygromycin (Thermo Scientific #10687010). The cells were cultured in a humidified incubator with 37° C. and 5% CO2. Cells maintenance was carried out as recommended by the cell supplier. Briefly, vials with cells were removed from the liquid nitrogen and thawed quickly in 37° C. water bath. Just before the cells were completely thawed the vial's outside was decontaminated by 70% ethanol spray. The cell suspension was then retrieved from the vial and added to warm (37° C.) complete growth media, and centrifuged at 1,000 rpm for 5 minutes. The supernatant was discarded, and the cell pellet was then resuspended in another 10 ml of complete growth media, and added to the 10 cm cell culture dish (Greiner Bio-One #664160). The media was changed every third day until the cells were about 90% confluent. The ˜90% confluent cells were then split 10:1 for maintenance or used for experiment.
As 5-HT1A activation inhibits cAMP formation, the ability of test molecules to modulate 5-HT1A response was measured via changes in the levels of cAMP produced due to application of 4 μM forskolin. […] Briefly, +5-HT1A cells were seeded on 1-6 columns and base −5-HT1A cells were seeded on columns 7-12 of the white walled clear bottom 96-well plate (Corning, #3903). Both cells were seeded at the density of 30,000 cells/well in 100 μl complete growth media and cultured 24 hrs in humidified incubator at 37° C. and 5% CO2. On the experiment day, the media of cells was replaced with serum/antibiotic free culture media. […] Forskolin induced cAMP formation whereas IBMX and RO 20-1724 inhibited the degradation of cAMP. PKA was added to the lysate, mixed, and subsequently the substrate of the PKA was added. PKA was activated by cAMP, and the amount of ATP consumed due to PKA phosphorylation directly corresponded to cAMP levels in the lysate.

5-HT2A [2] = biological target: T1, 5-HT2A; details: cited from earlier work

T1 sequence (P28223 whole entry): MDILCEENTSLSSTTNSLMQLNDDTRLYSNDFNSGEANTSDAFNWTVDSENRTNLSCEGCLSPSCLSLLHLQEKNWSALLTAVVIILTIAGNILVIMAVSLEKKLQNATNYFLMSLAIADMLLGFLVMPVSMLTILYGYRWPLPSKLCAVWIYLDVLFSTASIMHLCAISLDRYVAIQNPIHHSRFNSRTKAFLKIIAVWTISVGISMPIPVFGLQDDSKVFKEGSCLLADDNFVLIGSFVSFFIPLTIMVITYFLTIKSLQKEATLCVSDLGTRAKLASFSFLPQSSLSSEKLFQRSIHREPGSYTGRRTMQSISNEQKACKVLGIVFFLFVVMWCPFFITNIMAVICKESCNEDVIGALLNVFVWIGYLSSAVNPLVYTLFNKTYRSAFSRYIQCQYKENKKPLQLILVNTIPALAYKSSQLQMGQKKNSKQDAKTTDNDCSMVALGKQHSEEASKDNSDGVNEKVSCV

CC(=O)NCCc1c[nH]c2cc(F)cc(N)c12 [(IX)]
specific binding in competition with [3H]ketanserin for 5-HT2A sites (competition not complete) (5-HT2A [1]; fixed 1 nM [3H]ketanserin, test compound 3 nM to 1 mM, FIG. 15D): ~50%
% cAMP in +5HT1A compared to −5HT1A cultures as dosages increase (5-HT1A receptor): no significant difference

CC(=O)NCCc1c[nH]c2cc(NC(C)=O)cc(F)c12 [(X)]
Ki value at 5-HT2A compared with that of psilocin (in words) (5-HT2A [1]; [3H]ketanserin competition, FIG. 16B, indicates comparatively 'loose' binding): relatively high
% cAMP in +5HT1A compared to −5HT1A cultures as dosages increase (5-HT1A receptor): no significant difference

CNC(C)Cc1ccc2c(c1)OCO2 (centres unmarked) [MDMA]
Ki values for 5-HT2A (in words) (5-HT2A [2]): micromolar range

COc1cc(CCN)cc(OC)c1OC [mescaline]
Ki values for 5-HT2A (in words) (5-HT2A [2]; literature values signifying mild or 'loose' binding profiles): micromolar range

CN(C)CCc1c[nH]c2cccc(O)c12 [psilocin]
competition binding curve result at 5-HT2A receptor (binding / no binding) (5-HT2A [1]; fixed 1 nM [3H]ketanserin): binding
% cAMP in +5HT1A compared to −5HT1A cultures as dosages increase (5-HT1A receptor): decreased % cAMP

NCCc1c[nH]c2ccc(O)cc12 [serotonin]
% cAMP in +5HT1A compared to −5HT1A cultures as dosages increase (5-HT1A receptor): decreased % cAMP

N[C@@H](Cc1c[nH]c2ccccc12)C(=O)O [tryptophan]
competition binding curve result at 5-HT2A receptor (binding / no binding) (5-HT2A [1]; fixed 1 nM [3H]ketanserin): no binding
% cAMP in +5HT1A compared to −5HT1A cultures as dosages increase (5-HT1A receptor): no significant difference
